Source: PubChem BioAssay AID1919003 (Molecular Pharmacology Branch, DTP, NCI, 2023)

System: 786-0 complex spheroids with HUVEC/MSC, growth % test/control
Assay: Anticancer human tumor 786-0 cell line growth inhibition [AhR];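 also: compound exposure lasted seven days before the read-out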
Details: for IC50: curve of first compound; for viability, T/C: stronger effect = lower value
How it was run: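 Agents were dosed in half-log steps down from roughly clinical Cmax, or from 10 microM where Cmax was unknown, alone and with AhR antagonists. Read-out: percent test/control growth of tumor spheroids containing HUVEC and MSC stromal cells.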

[1] = second compound 0.1 µM, first compound 0.0316 µM
[2] = second compound 0.1 µM, first compound 0.1 µM
[3] = second compound 0.1 µM, first compound 0.316 µM
[4] = second compound 0.1 µM, first compound 1 µM
[5] = second compound 0.1 µM, first compound 3.16 µM
[6] = second compound 0.1 µM, first compound 10 µM
[7] = second compound 0.316 µM, first compound 0.0316 µM
[8] = second compound 0.316 µM, first compound 0.1 µM
[9] = second compound 0.316 µM, first compound 0.316 µM
[10] = second compound 0.316 µM, first compound 1 µM
[11] = second compound 0.316 µM, first compound 3.16 µM
[12] = second compound 0.316 µM, first compound 10 µM
[13] = second compound 1 µM, first compound 0.0316 µM
[14] = second compound 1 µM, first compound 0.1 µM
[15] = second compound 1 µM, first compound 0.316 µM
[16] = second compound 1 µM, first compound 1 µM
[17] = second compound 1 µM, first compound 3.16 µM
[18] = second compound 1 µM, first compound 10 µM
[19] = second compound 3.16 µM, first compound 0.0316 µM
[20] = second compound 3.16 µM, first compound 0.1 µM
[21] = second compound 3.16 µM, first compound 0.316 µM
[22] = second compound 3.16 µM, first compound 1 µM
[23] = second compound 3.16 µM, first compound 3.16 µM
[24] = second compound 3.16 µM, first compound 10 µM
[25] = second compound 10 µM, first compound 0.0316 µM
[26] = second compound 10 µM, first compound 0.1 µM
[27] = second compound 10 µM, first compound 0.316 µM
[28] = second compound 10 µM, first compound 1 µM
[29] = second compound 10 µM, first compound 3.16 µM
[30] = second compound 10 µM, first compound 10 µM

Compound | IC50 (second compound 0.1 µM) | IC50 (second compound 0.316 µM) | IC50 (second compound 1 µM) | IC50 (second compound 3.16 µM) | IC50 (second compound 10 µM) | viability, T/C [1] | viability, T/C [2] | viability, T/C [3] | viability, T/C [4] | viability, T/C [5] | viability, T/C [6] | viability, T/C [7] | viability, T/C [8] | viability, T/C [9] | viability, T/C [13] | viability, T/C [14] | viability, T/C [19] | viability, T/C [20] | viability, T/C [25] | viability, T/C [26] | also measured
CC1(C)CCC(CN2CCN(c3ccc(C(=O)NS(=O)(=O)c4ccc(NCC5CCOCC5)c([N+](=O)[O-])c4)c(Oc4cnc5[nH]ccc5c4)c3)CC2)=C(c2ccc(Cl)cc2)C1 + CC(CO)NC(=O)c1cc(-c2ccc(Cl)cc2)nn(-c2cnn(C)c2)c1=O | > 10 µM | > 10 µM | > 10 µM | > 10 µM | > 10 µM | 109% | 101% | 106% | 99.9% | 90.7% | 77.7% | 105% | 115% | 101% | 105% | 103% | 116% | 111% | 114% | 135% | viability, T/C [10]: 98.4%; viability, T/C [11]: 91.3%; viability, T/C [12]: 81.3%; viability, T/C [15]: 106%; viability, T/C [16]: 97.9%; viability, T/C [17]: 104%; viability, T/C [18]: 80.8%; viability, T/C [21]: 104%; viability, T/C [22]: 96.4%; viability, T/C [23]: 82.9%; viability, T/C [24]: 82.5%; viability, T/C [27]: 109%; viability, T/C [28]: 122%; viability, T/C [29]: 98.4%; viability, T/C [30]: 86.4%
Cn1ncnc1C1c2n[nH]c(=O)c3cc(F)cc(c23)NC1c1ccc(F)cc1 (stereo not given) + CC(CO)NC(=O)c1cc(-c2ccc(Cl)cc2)nn(-c2cnn(C)c2)c1=O | > 0.1 µM | > 0.1 µM | > 0.1 µM | > 0.1 µM | > 0.1 µM | 113% | 98.8% |  |  |  |  | 109% | 98.7% |  | 107% | 99.3% | 100% | 102% | 110% | 110% | viability, T/C (second compound 0.1 µM, first compound 0.000316 µM): 105%; viability, T/C (second compound 0.1 µM, first compound 0.001 µM): 97.4%; viability, T/C (second compound 0.1 µM, first compound 0.00316 µM): 95%; viability, T/C (second compound 0.1 µM, first compound 0.01 µM): 99.6%; viability, T/C (second compound 0.316 µM, first compound 0.000316 µM): 101%; viability, T/C (second compound 0.316 µM, first compound 0.001 µM): 105%; viability, T/C (second compound 0.316 µM, first compound 0.00316 µM): 97.8%; viability, T/C (second compound 0.316 µM, first compound 0.01 µM): 98.2%; viability, T/C (second compound 1 µM, first compound 0.000316 µM): 99.3%; viability, T/C (second compound 1 µM, first compound 0.001 µM): 107%; viability, T/C (second compound 1 µM, first compound 0.00316 µM): 105%; viability, T/C (second compound 1 µM, first compound 0.01 µM): 110%; viability, T/C (second compound 3.16 µM, first compound 0.000316 µM): 107%; viability, T/C (second compound 3.16 µM, first compound 0.001 µM): 102%; viability, T/C (second compound 3.16 µM, first compound 0.00316 µM): 99.1%; viability, T/C (second compound 3.16 µM, first compound 0.01 µM): 111%; viability, T/C (second compound 10 µM, first compound 0.000316 µM): 114%; viability, T/C (second compound 10 µM, first compound 0.001 µM): 118%; viability, T/C (second compound 10 µM, first compound 0.00316 µM): 110%; viability, T/C (second compound 10 µM, first compound 0.01 µM): 111%
NS(=O)(=O)OCC1CC(n2ccc3c(NC4CCc5ccccc54)ncnc32)CC1O (stereo not given) + CC(CO)NC(=O)c1cc(-c2ccc(Cl)cc2)nn(-c2cnn(C)c2)c1=O | 0.365 µM | 0.344 µM | 0.376 µM | 0.249 µM | 0.261 µM | 78.8% | 78.7% | 52.8% | 20.9% | 3.93% | 1.87% | 86.8% | 73.3% | 54.5% | 77.4% | 72.1% | 87.8% | 67.7% | 93% | 72.9% | viability, T/C [10]: 19.6%; viability, T/C [11]: 4.23%; viability, T/C [12]: 2.08%; viability, T/C [15]: 55.2%; viability, T/C [16]: 21.8%; viability, T/C [17]: 4%; viability, T/C [18]: 2.14%; viability, T/C [21]: 47.6%; viability, T/C [22]: 19.1%; viability, T/C [23]: 3.93%; viability, T/C [24]: 2.48%; viability, T/C [27]: 46.5%; viability, T/C [28]: 18.7%; viability, T/C [29]: 3.17%; viability, T/C [30]: 2.21%
